Earlier results on four molecules are cited in patent US20200368246A1, “COMBINATION THERAPY TARGETING CANCER ASSOCIATED WITH THE HEDGEHOG PATHWAY” (priority 2017, published 2020).

Where two headings read alike, the source gives them in different places.

The conditions of data set [1]: nineteen patients; grade 2 fatigue and grade 4 congestive heart failure.
For data set [2], the system named is advanced and metastatic basal cell carcinoma. The note with it: monotherapy.
The conditions of data set [3]: for patients who experience treatment-emergent adverse events: monotherapy at recommended dose; for patients who experienced adverse side effects: muscle spasms, alopecia, taste loss, weight loss, fatigue.
For the next data set, the system named is basal cell carcinoma. The note with it: patient.
The mark [4] stands for this setting: metastatic basal cell carcinoma.

`CCC(C)n1ncn(-c2ccc(N3CCN(c4ccc(OCC5COC(Cn6cncn6)(c6ccc(Cl)cc6Cl)O5)cc4)CC3)cc2)c1=O` (stereo not drawn) [itraconazole]: the “adverse events associated with treatment” value in data set [1] is “two adverse events”.

Turning to `CS(=O)(=O)c1ccc(C(=O)Nc2ccc(Cl)c(-c3ccccn3)c2)c(Cl)c1` [Erivedge®, vismodegib], in data set [2], the “mean time for secondary resistance” value is “about 52 weeks” and the “treated patients with secondary resistance” value is on record as 21%. For the same molecule, in data set [2] (advanced basal cell carcinoma), the response rate is 43%. The response rate in data set [2] (setting [4]) was 30%. Besides, the “patients who experience treatment-emergent adverse events” value in data set [3] is recorded as “Ninety-five to one hundred percent”. Moreover, in data set [3] (monotherapy trial), the “patients with severe grade 3 or 4 adverse reactions” value was 25% and the “patients who experienced adverse side effects” value was 33%. In addition, the tumor shrinkage with basal cell carcinoma (clinical trial, within the first several months) is 70%. The “tumor outcome on second course” value in the data set with basal cell carcinoma (placed back on the drug after radiation) is “the tumor developed resistance to the drug”.

Turning to pembrolizumab [Keytruda], in the data set on basal cell carcinoma (3 cycles), the effectiveness entry is “failed to show effectiveness”.

Take `Cc1c(C(=O)Nc2ccc(N3C[C@@H](C)O[C@@H](C)C3)nc2)cccc1-c1ccc(OC(F)(F)F)cc1` [Odomzo®, sonidegib]: in data set [2], the “mean time for secondary resistance” value was “about 52 weeks” and the “treated patients with secondary resistance” value is on record as 21%. Besides, the response rate in data set [2] (advanced basal cell carcinoma) is 47%. The response rate in data set [2] (setting [4]) is listed as 17.4%. For the same molecule, the “patients who experience treatment-emergent adverse events” value in data set [3] was “Ninety-five to one hundred percent”. Besides, in data set [3] (monotherapy trial), the “patients who had to discontinue treatment due to toxic effects” value was 22% and the “patients who experienced adverse side effects” value is 32%.
